In ChEMBL document CHEMBL1201862, “PubChem BioAssay data set” (2004):
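Cells were grown in 96-well plates and exposed to each compound for 48 hours at five concentrations; endpoints were interpolated linearly between bracketing concentrations, or set to the highest concentration if not reached. At the GI50, growth is halved.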 Calls of active or inactive are those of the source. Rule as the data show it: active = GI50 up to about 1.1 µM and inactive = higher.

Columns and labels:
Assay in all cases: NCI tumour cell line growth inhibition, 48 h
[1] = test system: UACC-257
[2] = test system: OVCAR-4
[3] = test system: BT-549
[4] = test system: RPMI-8226
[5] = test system: HCT-15
[6] = test system: KM12
[7] = test system: MDA-N
[8] = test system: HOP-62
[9] = test system: RXF 393
[10] = test system: HT-29
[11] = test system: HCT-116
[12] = test system: HOP-92
[13] = test system: NCI-H226
[14] = test system: SF-295
[15] = test system: IGROV-1
[16] = test system: OVCAR-3
[17] = test system: SK-OV-3
[18] = test system: 786-0
[19] = test system: SK-MEL-28
[20] = test system: A498

SMILES	GI50 [1]	GI50 [2]	GI50 [3]	GI50 [4]	GI50 [5] [µM]	GI50 [6]	GI50 [7]	GI50 [8]	GI50 [9]	GI50 [10]	GI50 [11]	GI50 [12]	GI50 [13]	GI50 [14]	GI50 [15]	GI50 [16]	GI50 [17]	GI50 [18]	GI50 [19]	GI50 [20]
CC(=O)Nc1ccccc1SCCSSCCSc1ccccc1NC(C)=O	20.7 µM (inactive)	22.6 µM (inactive)	51.9 µM (inactive)	17.9 µM (inactive)	20.7	40.1 µM (inactive)	25.4 µM (inactive)	58.6 µM (inactive)	34.2 µM (inactive)	28.8 µM (inactive)	36.2 µM (inactive)	17.5 µM (inactive)	31.1 µM (inactive)	26.7 µM (inactive)	20.3 µM (inactive)	28.8 µM (inactive)	27.8 µM (inactive)	28.4 µM (inactive)	–	–
CSc1c(C(=O)Nc2ccc(C)cc2)c(N)n(N)c(=O)c1C#N	> 100 µM (inactive)	> 100 µM (inactive)	> 100 µM (inactive)	> 100 µM (inactive)	> 100	> 100 µM (inactive)	> 100 µM (inactive)	–	> 100 µM (inactive)	> 100 µM (inactive)	> 100 µM (inactive)	–	> 100 µM (inactive)	–	> 100 µM (inactive)	> 100 µM (inactive)	> 100 µM (inactive)	> 100 µM (inactive)	> 100 µM (inactive)	> 100 µM (inactive)
Cc1cccc2c(N)c3cccc(C(=O)NCCN(C)C)c3nc12	0.193 µM (active)	0.09 µM (active)	1.41 µM (inactive)	< 0.021 µM (active)	< 0.0154	–	–	< 0.0247 µM (active)	0.184 µM (active)	< 0.0236 µM (active)	0.0236 µM (active)	–	–	< 0.0298 µM (active)	< 0.0291 µM (active)	0.125 µM (active)	0.113 µM (active)	< 0.0199 µM (active)	0.193 µM (active)	0.157 µM (active)
O=C(Cn1c2c(c3ccccc31)CCCC2)NC1CCCCC1	> 100 µM (inactive)	94.2 µM (inactive)	> 100 µM (inactive)	> 100 µM (inactive)	> 100	–	> 100 µM (inactive)	81.8 µM (inactive)	–	> 100 µM (inactive)	> 100 µM (inactive)	–	–	51.3 µM (inactive)	22.5 µM (inactive)	96.4 µM (inactive)	45.9 µM (inactive)	69.8 µM (inactive)	63 µM (inactive)	> 100 µM (inactive)
CC1(C)C2CCC1(C)C(OC(=O)/C=C/C(=O)OC1CC3CCC1(C)C3(C)C)C2 (centres undefined)	31 µM (inactive)	> 100 µM (inactive)	44.7 µM (inactive)	–	68.7	> 100 µM (inactive)	60.4 µM (inactive)	> 100 µM (inactive)	58.9 µM (inactive)	40 µM (inactive)	56.9 µM (inactive)	24.8 µM (inactive)	–	> 100 µM (inactive)	> 100 µM (inactive)	48.8 µM (inactive)	–	72.9 µM (inactive)	18.9 µM (inactive)	> 100 µM (inactive)
N=C1C(O)C2(I)c3ccccc3N3C(=N)C(O)C4c5ccccc5N1C4C32 (centres undefined)	> 100 µM (inactive)	16 µM (inactive)	> 100 µM (inactive)	40.9 µM (inactive)	32.3	15.1 µM (inactive)	42.7 µM (inactive)	38.3 µM (inactive)	> 100 µM (inactive)	95.1 µM (inactive)	36.7 µM (inactive)	37.4 µM (inactive)	–	47.8 µM (inactive)	19.9 µM (inactive)	32.1 µM (inactive)	40.6 µM (inactive)	30.8 µM (inactive)	90.6 µM (inactive)	> 100 µM (inactive)
NC(=O)C(=CN1C(=O)CC(=O)NC1=S)C(N)=O	> 100 µM (inactive)	> 100 µM (inactive)	> 100 µM (inactive)	–	> 100	> 100 µM (inactive)	–	> 100 µM (inactive)	> 100 µM (inactive)	> 100 µM (inactive)	> 100 µM (inactive)	> 100 µM (inactive)	> 100 µM (inactive)	> 100 µM (inactive)	> 100 µM (inactive)	> 100 µM (inactive)	> 100 µM (inactive)	> 100 µM (inactive)	> 100 µM (inactive)	> 100 µM (inactive)
COc1ccc(/C=C2\CCC(CNc3ccc(Br)cc3)C2=O)cc1 (centres undefined)	> 100 µM (inactive)	> 100 µM (inactive)	88.7 µM (inactive)	5.87 µM (inactive)	8.45	29.1 µM (inactive)	–	> 100 µM (inactive)	> 100 µM (inactive)	> 100 µM (inactive)	–	> 100 µM (inactive)	> 100 µM (inactive)	> 100 µM (inactive)	> 100 µM (inactive)	> 100 µM (inactive)	> 100 µM (inactive)	> 100 µM (inactive)	> 100 µM (inactive)	> 100 µM (inactive)
c1ccc2c(c1)ccn1ccc3c4ccccc4nc-3c21	1.06 µM (active)	0.332 µM (active)	1.43 µM (inactive)	0.195 µM (active)	0.305	0.346 µM (active)	–	0.411 µM (active)	0.439 µM (active)	0.11 µM (active)	0.0935 µM (active)	1.41 µM (inactive)	0.31 µM (active)	0.426 µM (active)	0.394 µM (active)	0.918 µM (active)	0.566 µM (active)	0.178 µM (active)	0.368 µM (active)	0.0527 µM (active)
COCOc1cc(OC)ccc1C=O	28.6 µM (inactive)	78 µM (inactive)	58.1 µM (inactive)	–	36.4	34 µM (inactive)	5.58 µM (inactive)	72.3 µM (inactive)	14.7 µM (inactive)	25.6 µM (inactive)	33.7 µM (inactive)	–	40.8 µM (inactive)	39 µM (inactive)	33.1 µM (inactive)	20.9 µM (inactive)	62.4 µM (inactive)	36.6 µM (inactive)	> 100 µM (inactive)	–
Cc1nn(C(=O)c2ccc(Cl)cc2)c2c1C(c1ccccc1)SC(=N)N2 (centres undefined)	> 10 µM (inactive)	> 10 µM (inactive)	> 10 µM (inactive)	> 10 µM (inactive)	> 10	> 10 µM (inactive)	> 10 µM (inactive)	> 10 µM (inactive)	> 10 µM (inactive)	> 10 µM (inactive)	> 10 µM (inactive)	> 10 µM (inactive)	> 10 µM (inactive)	> 10 µM (inactive)	> 10 µM (inactive)	> 10 µM (inactive)	> 10 µM (inactive)	> 10 µM (inactive)	> 10 µM (inactive)	–
COc1cc(Nc2c(C#N)[n+]([O-])c3ccccc3[n+]2[O-])cc(OC)c1OC	27.4 µM (inactive)	> 100 µM (inactive)	97.5 µM (inactive)	> 100 µM (inactive)	15.6	37.7 µM (inactive)	–	29 µM (inactive)	33.8 µM (inactive)	29.9 µM (inactive)	16.4 µM (inactive)	28.1 µM (inactive)	–	46.3 µM (inactive)	–	25.6 µM (inactive)	15.7 µM (inactive)	20 µM (inactive)	19 µM (inactive)	48.3 µM (inactive)
C[S+](C)C1(c2ccccc2)C(=O)c2ccccc2C1=O	> 64.9 µM (inactive)	> 47.6 µM (inactive)	11.8 µM (inactive)	> 62.1 µM (inactive)	> 51.1	> 100 µM (inactive)	–	> 56.9 µM (inactive)	33.3 µM (inactive)	> 100 µM (inactive)	> 54.3 µM (inactive)	> 60.8 µM (inactive)	48 µM (inactive)	36.1 µM (inactive)	> 69.3 µM (inactive)	> 55.1 µM (inactive)	> 100 µM (inactive)	> 100 µM (inactive)	> 100 µM (inactive)	73.8 µM (inactive)
O=C1c2c(ccc3c2CCC3)CC12Cc1ccccc1C2	22.1 µM (inactive)	31.2 µM (inactive)	–	7.38 µM (inactive)	15.6	22.5 µM (inactive)	2.94 µM (inactive)	20.9 µM (inactive)	11.5 µM (inactive)	9.08 µM (inactive)	5.92 µM (inactive)	10.5 µM (inactive)	18 µM (inactive)	91.4 µM (inactive)	29 µM (inactive)	17.7 µM (inactive)	17.9 µM (inactive)	20.7 µM (inactive)	25 µM (inactive)	12.4 µM (inactive)
Cc1ccc(C(=O)OC(C)C)cc1/N=N/N(C)C	27.1 µM (inactive)	> 75.2 µM (inactive)	> 100 µM (inactive)	> 100 µM (inactive)	> 100	> 84.5 µM (inactive)	> 100 µM (inactive)	97.5 µM (inactive)	–	> 100 µM (inactive)	> 67.9 µM (inactive)	> 93.3 µM (inactive)	–	58.6 µM (inactive)	> 100 µM (inactive)	46 µM (inactive)	> 100 µM (inactive)	> 100 µM (inactive)	> 100 µM (inactive)	–
COc1ccccc1NS(=O)(=O)c1ccc2ncn(NS(=O)(=O)c3ccc(Cl)cc3)c(=O)c2c1	> 100 µM (inactive)	> 100 µM (inactive)	> 100 µM (inactive)	26.9 µM (inactive)	> 100	61.4 µM (inactive)	67.9 µM (inactive)	> 100 µM (inactive)	–	> 100 µM (inactive)	> 100 µM (inactive)	> 100 µM (inactive)	> 100 µM (inactive)	17.7 µM (inactive)	> 100 µM (inactive)	> 100 µM (inactive)	> 100 µM (inactive)	> 100 µM (inactive)	> 100 µM (inactive)	–
